From US20240286998A1, “F[…], ANALOGUES THEREOF, AND METHODS USING SAME” (Saint Joseph's University, priority 2021, published 2024)

How the values were obtained:
5-HT2B = 5-HT2B (Homo sapiens (Human), UniProt P41595); assay: 5-HT2B Gq-mediated calcium flux functional assay; assay type: cell-based; conditions: for 5-HT2B-Ca2+ FLUX Emax (% 5-HT): IA = Inactive, N=1-3
5-HT2C = 5-HT2C (Homo sapiens (Human), UniProt P28335); assay: 5-HT2C Gq-mediated calcium flux functional assay; assay type: cell-based; conditions: for 5-HT2C-Ca2+ FLUX Emax (% 5-HT): IA = Inactive, N=1-3
Serotonin 5-HT2A (human) = Serotonin 5-HT2A (human) (Homo sapiens (Human), UniProt P28223); assay: 5-HT2A receptor binding, [3H]-ketanserin competition in membrane fractions; conditions: 1 nM [3H]-ketanserin, Cheng-Prusoff, N=1-3
5-HT2A = 5-HT2A (Homo sapiens (Human), UniProt P28223); assay: 5-HT2A Gq-mediated calcium flux functional assay; assay type: cell-based; conditions: for 5-HT2A-Ca2+ FLUX Emax (% 5-HT): IA = Inactive, N=1-3
5-HT1A = 5-HT1A (Homo sapiens (Human), UniProt P08908); assay: 5-HT1A Gi/o-mediated cAMP inhibition, GloSensor assay; assay type: cell-based; conditions: for 5-HT1A-cAMP Emax (% 5-HT): cAMP inhibition, 0.2 μM isoproterenol, IA = Inactive

5-HT2B, sequence (P41595 whole entry): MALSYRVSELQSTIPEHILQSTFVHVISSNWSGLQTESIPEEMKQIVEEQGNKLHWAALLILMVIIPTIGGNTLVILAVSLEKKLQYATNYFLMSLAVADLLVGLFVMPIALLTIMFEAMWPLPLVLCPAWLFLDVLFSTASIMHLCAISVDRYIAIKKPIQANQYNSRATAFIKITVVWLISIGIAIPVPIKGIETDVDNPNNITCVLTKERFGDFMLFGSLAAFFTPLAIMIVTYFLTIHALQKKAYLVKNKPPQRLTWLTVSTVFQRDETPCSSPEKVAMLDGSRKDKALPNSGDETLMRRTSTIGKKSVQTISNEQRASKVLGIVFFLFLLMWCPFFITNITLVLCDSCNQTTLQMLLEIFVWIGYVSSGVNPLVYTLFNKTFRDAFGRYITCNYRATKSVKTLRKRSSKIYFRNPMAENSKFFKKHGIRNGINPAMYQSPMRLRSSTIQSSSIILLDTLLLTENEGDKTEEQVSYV
5-HT2C, sequence (P28335 whole entry, looked up): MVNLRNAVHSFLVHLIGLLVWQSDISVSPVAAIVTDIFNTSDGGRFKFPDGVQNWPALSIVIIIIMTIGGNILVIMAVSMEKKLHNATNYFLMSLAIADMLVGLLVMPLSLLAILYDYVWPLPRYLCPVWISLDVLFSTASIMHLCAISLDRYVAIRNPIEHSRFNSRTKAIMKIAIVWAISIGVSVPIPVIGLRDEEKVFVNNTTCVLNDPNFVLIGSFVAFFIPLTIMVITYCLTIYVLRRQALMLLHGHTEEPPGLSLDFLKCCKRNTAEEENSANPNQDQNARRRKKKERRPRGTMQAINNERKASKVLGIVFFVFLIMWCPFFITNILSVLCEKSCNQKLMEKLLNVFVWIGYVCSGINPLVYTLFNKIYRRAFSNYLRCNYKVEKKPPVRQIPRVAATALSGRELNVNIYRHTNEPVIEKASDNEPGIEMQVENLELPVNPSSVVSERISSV

| Compound | EC50 (5-HT2B) [nM] | 5-HT2B-Ca2+ FLUX Emax (% 5-HT) (5-HT2B) | EC50 (5-HT2C) [nM] | 5-HT2C-Ca2+ FLUX Emax (% 5-HT) (5-HT2C) | 5-HT2A pKi ± SEM (Serotonin 5-HT2A (human)) | EC50 (5-HT2A) [nM] | 5-HT2A-Ca2+ FLUX Emax (% 5-HT) (5-HT2A) | EC50 (5-HT1A) [nM] | 5-HT1A-cAMP Emax (% 5-HT) (5-HT1A) |
| --- | --- | --- | --- | --- | --- | --- | --- | --- | --- |
| CCCN(CC)CCc1c[nH]c2c(F)c(F)ccc12 [compound 82, N-(2-(6,7-difluoro-1H-indol-3-yl)ethyl)-N-ethylpropan-1-amine] | 66.1 | 86.3 ± 0.8 | 195 | 89.6 ± 1.7 | 6.52 | 10.5 | 90.4 ± 0.7 |  |  |
| CCCN(CCC)CCc1c[nH]c2ccc(F)cc12 [Example 5, N-(2-(5-fluoro-1H-indol-3-yl)ethyl)-N-propylpropan-1-amine] | 0.759 | 104.1 ± 0.7 | 3.39 | 109.3 ± 3.1 | 6.20 | 0.724 | 106.7 ± 0.8 | 74.1 | 87.5 ± 1.6 |
| CCC(C)N(CCc1c[nH]c2ccc(F)cc12)C1CC1 (stereo not drawn) [compound 172, N-(sec-butyl)-N-(2-(5-fluoro-1H-indol-3-yl)ethyl)cyclopropanamine] | 6.46 | 93.5 ± 0.8 | 151 | 82.3 ± 1.7 | 6.47 | 3.98 | 94.0 ± 0.6 |  |  |
| CCC(C)N(CC)CCc1c[nH]c2ccc(F)cc12 (stereo not drawn) [compound 30, N-ethyl-N-(2-(5-fluoro-1H-indol-3-yl)ethyl)butan-2-amine] | 3.47 | 83.8 ± 2.1 | 148 | 72.2 ± 2.9 | 5.70 ± 0.39 | 2.45 | 93.2 ± 1.7 | 468 | 104.0 ± 3.1 |
| CCN(C)CCc1c[nH]c2c(Br)cc(F)cc12 [compound 174, 2-(7-bromo-5-fluoro-1H-indol-3-yl)-N-ethyl-N-methylethan-1-amine] |  |  | 13.2 | 39.9 ± 1.1 | 6.42 | 18.6 | 38.2 ± 1.4 |  |  |
| CCN(C)CCc1c[nH]c2cc(F)c(Cl)cc12 [compound 179, 2-(5-chloro-6-fluoro-1H-indol-3-yl)-N-ethyl-N-methylethan-1-amine] | 10.7 | 67.8 ± 0.6 | 22.9 | 95.5 ± 1.0 | 6.93 | 10.7 | 79.3 ± 0.7 |  |  |
| CCCN(CC)CCc1c[nH]c2c(F)c(F)c(F)cc12 [compound 165, N-ethyl-N-[2-(5,6,7-trifluoro-1H-indol-3-yl)ethyl]propan-1-amine] | 7.41 | 102.4 ± 0.8 | 38.9 | 102.8 ± 1.7 | 6.69 | 4.57 | 103.0 ± 0.8 |  |  |
| C#CCN(CCc1c[nH]c2ccc(F)cc12)C(C)CC (stereo not drawn) [compound 176, N-(2-(5-fluoro-1H-indol-3-yl)ethyl)-N-(prop-2-yn-1-yl)butan-2-amine] | 28.8 | 103.0 ± 0.6 | 191 | 99.6 ± 1.5 | 5.89 | 40.7 | 97.8 ± 1.1 |  |  |
| CCN(C)CCc1c[nH]c2cc(C)c(F)cc12 [compound 175, N-ethyl-2-(5-fluoro-6-methyl-1H-indol-3-yl)-N-methylethan-1-amine] |  |  | 102 | 51.2 ± 2.0 | 5.96 | 6.76 | 48.6 ± 2.8 |  |  |
